{
  "source": "patent US7320995B2",
  "about": "“Benzimidazoles and benzothiazoles as inhibitors of map kinase” (Eli Lilly and Company, priority 2002, dated 2008)",
  "key": {"[1]": {"tested_on": "TNF-α production in mouse peritoneal macrophages", "test": "Inhibition of TNF-α in vitro, mouse peritoneal macrophages, Luminex", "format": "cell-based", "details": "Peritoneal macrophage; LPS and interferon-γ stimulated mouse peritoneal macrophages, 18 hours; read-out: IC50, suppression of TNF-α in vitro", "method": "At day 4 or 5 post-injection the mice are sacrificed and then injected i.p. with 4 mL Dulbecco's phosphate-buffered saline (BioWhittaker) and the peritoneal macrophages are withdrawn by syringe. Mouse peritoneal macrophages are counted with a hemocytometer and adjusted to 2.5×10^6 cells/ml complete media (RPMI-1640 medium containing 10% fetal bovine serum). Cells are plated in 96-well flat-bottom plates at 5×10^5 cells per 200 μl per well and allowed to settle and adhere to the bottom of the well for at least 3 hours. […] (20 μL/well). The cells are then treated with a mixture of 50 ng/L lipopolysaccharide (LPS) and 10 U/mL interferon-γ for 18 hours at 37° C. (20 μL/well). The conditioned media is harvested and assayed for TNF-α production using the Luminex procedure. […] The premixed anti-cytokine conjugated beads are vortexed (25×) vigorously for 30 seconds. The anti-cytokine conjugated beads are diluted to a 1× concentration using 1× Bio-Plex Assay Buffer. For every plate, 240 μL of the pre-mixed beads is added to 5760 μL of Bio-Plex Assay Buffer. […] The blocking buffer is filtered through using a Millipore filtration system and then toweled dry. Two washes are performed on the filter plate with 100 μl/well of Bio-Plex Assay Buffer and toweled dry. The 1× anti-cytokine conjugated beads are vortexed for 15 seconds and added 50 μL to each well. This is filtered through and toweled dry. Two washes are performed on plates with 100 μl/well of Bio-Plex Wash Buffer. Again, it is filtered through and toweled dry. 50 μL of sample or standard is added to each sample well. This is incubated for 60 seconds at room temperature on a shaker protected from light at setting 6 and then for 30 minutes at setting 3 and then placed in the refrigerator overnight. […] Standards and samples are read on a Luminex machine. These intensity readings are then converted to picogram/milliliter units based on a 12-point standard curve created in duplicate using a four-parameter logistic regression method (Bio-Plex Manager, Versions 2.0 and 3.0, Bio-Rad), and the IC50 calculated."}, "TNF-α": {"tested_on": "TNF-α", "test": "Effect on intra-articular LPS induced TNF-α (synovial lavage fluid, ELISA)", "format": "in vivo, female Lewis rats", "details": "orally, one hour before intra-articular LPS, lavage after two hours", "method": "Intra-articular injection of LPS into rat […] induces the synthesis of TNF-α, which can be measured in synovial lavage fluid. High levels of TNF-α are detectable within 2 hours. Since the joint is the site where arthritis develops, this model can rapidly determine whether an orally administered compound has an effect on an inflammatory response in the synovium.\nSix female Lewis rats (150-200 g) are place in each treatment group. The animals are given vehicle (1% NaCarboxymethylcellulose-0.25% Tween 80) or Example 77 (free base) (1 mg/kg, 3 mg/kg, 10 mg/kg, and 30 mg/kg) orally. One hour later, 10 μl LPS (10 μg) is administered intra-articulately into the right ankle of each rat, while the left ankle receives 10 μL of saline. After two hours, each […] is laved with 100 μL of saline. The lavage is collected and stored at −80° C. • Group#1: Vehicle (1% NaCMC-0.25% Tween 80, 1 mL, PO) • Group#2: Example 77 (free base) (1 mg/kg, 1 mLl, PO) • Group#3: Example 77 (free base) (3 mg/kg, 1 mL, PO) • Group#4: Example 77 (free base) (10 mg/kg, 1 mL, PO) • Group#5: Example 77 (free base) (30 mg/kg, 1 mL, PO)\nTNF-α was measured with a commercially available ELISA kit (R&D, RTA00). […] The TMED50=10 mg/kg for Example 77 in this assay."}, "[2]": {"tested_on": "MAPKAPK-2 phosphorylation (p38 MAPK) in B16F10 tumors", "test": "B16F10 target (phosphorylated MAPKAPK-2) studies, immuno-blot of tumors", "format": "in vivo, C57B16 mice"}, "[3]": {"test": "Rat collagen induced arthritis efficacy model", "format": "in vivo, female Lewis rats", "method": "Female Lewis rats ((≅190 gm, Charles River Labs) are immunized with Bovine type II collagen (2 mg/ml) emulsified with an equal volume of adjuvant (aluminum hydroxide). […]. The rats are immunized with approximately […] of the emulsion intradermally on the back near the base of the tail. All animals are re-immunized 7 days later according to the same protocol. The rats begin to develop arthritis (characterized by swelling and redness of one or both ankles) from 12 to 14 days after the first immunization. The rats are equally distributed into five treatment groups at the first signs of arthritis and treatment is initiated with each rat dosed bid for 14 days.\n• Group 1 Vehicle (1% NaCarboxymethylcellulose+0.25% Tween 80) 1 mL, PO, Bid×14 days • Group 2 Example 77 (free base), 5 mg/kg, 1 mL, PO, Bid×14 • Group 3 Example 77 (free base), 15 mg/kg, 1 mL, PO, Bid×14 • Group 4 Example 77 (free base), 30 mg/kg, 1 mL, PO, Bid×14 • Group 5 Prednisolone 10 mg/kg, 1 mL, PO, qd×14\nAnkle diameter is measured with calipers 5 days a week and recorded. Data is expressed as the area under the curve (AUC) generated from the composite inflammation scores and statistical analysis performed.\nAt the termination of the study, animals were sacrificed and ankles processed for histological evaluation. […]"}, "[4]": {"tested_on": "MAPKAP-K2 phosphorylation in P815 tumors", "test": "In vivo target inhibition study in P815 mastocytoma model", "design": "species or system DBA/2 mice", "details": "single oral dose 30 mg/kg", "method": "In vivo target inhibition is determined by measuring the effect of inhibitor treatment on the phosphorylation of MAPKAP-K2 expressed in P815 tumor tissues. Tumors in DBA/2 mice received P815 cells subcutaneous implantation are allowed to grow to a size of 300-500 mg without treatment. Tumor bearing mice are then given oral administration of Example 77 (free base) or vehicle. To investigate time course related target inhibition by Example 77 (free base), tumors are harvested from CO2 sacrificed animals at the indicated times (3 hours, 6 hours, 12 hours, and 18 hours) after compound is dosed at 30 mg/kg. Dose-dependent target inhibition by Example 77 (free base) is investigated by harvesting tumors at 3 hours after orally given different doses of Example 77 (free base) or vehicle. Harvested tumors are immediately snap frozen onto dry ice, pulverized, homogenized and lysed in cooled lysis buffer containing proteinase and phosphatase inhibitors. After centrifugation to remove cell debris, supernatants containing 100 microgram total proteins are resuspended in 2×Tris-Glycin loading buffer and subjected to sodium dodecyl sulfate-polyacrylamide gel electrophoresis (10% Tris-Glycine) under reducing conditions. […] Expression level of phospho-p38 MAP kinase and total p-38 MAP kinase is also monitored by similar western blotting procedure."}, "P815 tumors": {"tested_on": "P815 tumors", "test": "Inhibition of P815 tumor growth in vivo", "design": "species or system DBA/2 mice", "method": "Female(6-8 weeks old) DBA/2 mice (Taconic) are implanted subcutaneously into the hind flank region on day 0 with P815 cells (0.5×10^6 cells in 200 ul of RPMI 1640). P815 tumor cells are purchased from ATCC and are cultured in RPMI 1640 medium, supplemented with glutamine and 10% bovine serum at 37° C. in 5% CO2 cell culture incubator. Tumor-bearing animals are treated with oral administration of Example 77 (free base), at different doses or vehicle with frequency of three times a day started on the day of implantation. Tumor growth is monitored every 2 days by measuring perpendicular diameters. Tumor volume expressed in milligram (mg) is determined as the product of the largest diameter (a) and its perpendicular (b) according to the formula [tumor volume=a×b^2×0.536]."}, "[5]": {"tested_on": "B16F10 melanoma lung metastases", "test": "Inhibition of B16F10 melanoma lung metastases", "format": "in vivo, C57B16 mice", "details": "day -1 to 16", "method": "The B16F10 melanoma cell line is obtained from the American Type Culture Collection, Rockville, Md. The cells are cultured in RPMI-1640 medium supplemented with 10% fetal calf serum. The cells grown in vitro are harvested during their exponential growth phase by gentle trypsinization, washed twice in medium, and resuspended in serum-free RPMI-1640 medium. The number of monodisperse viable cells is determined using a hemocytometer and adjusted to 1×10^6 cells/mL. Tumor cells are injected intravenously into the tail vein of normal C57B16 mice with an inoculum volume of 0.2 ml containing 200,000 cells. Mice are treated with test compound or vehicle control starting 1 day before i.v. tumor inoculation. Example 77 (free base) is prepared as a suspension formulation in 1% NaCMC/0.25% polysorbate 80 and probe sonicated in an injection volume of 1% body weight (e.g., the 30 mg/kg dose level is prepared at 3 mg/ml and 0.2 cc was administered per 20 gram mouse). Mice are treated orally tid. with the compound at 30, 10, and 3 mg/kg (90, 30, and 9 mg/kg/day) from days −1 through 16 after tumor cell inoculation. Control mice receive the vehicle alone in an identical manner. On day 16, the mice are sacrificed, and the lungs are harvested and fixed in 3% paraformaldehyde. Lung lesions are quantitated by manual counting under a dissecting microscope.\nThe test compound was tested in the B16F10 melanoma lung metastasis model orally at 3, 10, and 30 mg/kg, tid from one day before to 16 days after i.v. tumor inoculation (total dose 9, 30 and 90 mg/kg/day). The lungs were harvested on day 16 and lung lesions were quantitated."}, "angiogenesis": {"tested_on": "angiogenesis", "details": "J. R. Jackson, et al., 1998; cited from earlier work"}},
  "data": [
    {"compound": "CC(C)S(=O)(=O)n1c(N)nc2ccc(-c3nc(-c4cccs4)[nH]c3-c3ccccc3)cc21", "note": "[Example 1, 1-isopropylsulfonyl-2-amino-6-(2-(thien-2-yl)-5-(phenyl)-imidazol-4-yl)-benzimidazole methanesulfonate]", "values": [
      {"measurement": "IC50", "setting": "[1]", "result": "< 100", "unit": "nM"}
    ]},
    {"compound": "CC(C)S(=O)(=O)n1c(N)nc2ccc(-c3nc(-c4ccncc4)[nH]c3-c3ccccc3)cc21", "note": "[Example 16, 1-isopropylsulfonyl-2-amino-6-(2-(pyridin-4-yl)-5-(phenyl)-imidazol-4-yl)-benzimidazole]", "values": [
      {"measurement": "IC50", "setting": "[1]", "result": "< 100", "unit": "nM"}
    ]},
    {"compound": "CC(C)S(=O)(=O)n1c(N)nc2ccc(-c3nc(-c4nccs4)[nH]c3-c3ccccc3)cc21", "note": "[Example 17, 1-isopropylsulfonyl-2-amino-6-(2-(thiazol-2-yl)-5-(phenyl)-imidazol-4-yl)-benzimidazole]", "values": [
      {"measurement": "IC50", "setting": "[1]", "result": "< 100", "unit": "nM"}
    ]},
    {"compound": "CC(C)S(=O)(=O)n1c(N)nc2ccc(-c3nc(-c4c(F)cccc4F)[nH]c3-c3ccccc3)cc21", "note": "[Example 77, 1-isopropylsulfonyl-2-amino-6-(2-(2,6-difluorophenyl)-5-(phenyl)-imidazol-4-yl)-benzimidazole]", "values": [
      {"measurement": "TMED50, inhibition of TNF-α synthesis in synovial lavage fluid", "setting": "TNF-α", "result": 10, "unit": "mg/kg"},
      {"measurement": "time for which p38 MAPK activity was inhibited", "setting": "[2]; 30 mg/kg, time course study", "result": "up to 9 hours"},
      {"measurement": "ANOVA TMED50, inhibition of MAPKAPK-2 phosphorylation", "setting": "[2]; 2.5 hours after p.o. dosing", "result": 3, "unit": "mg/kg"},
      {"measurement": "lowest dose with appreciable inhibition of MAPKAPK-2 phosphorylation", "setting": "[2]; 2.5 hours after p.o. dosing", "result": 0.3, "unit": "mg/kg"},
      {"measurement": "reduction of the phosphorylation level of MAPKAPK-2 in the tumors", "setting": "[2]; doses >30 mg/kg", "result": "> 80", "unit": "%"},
      {"measurement": "maximum reduction in ankle diameter", "setting": "[3]; 30 mg/kg PO bid x 14 days", "result": 46, "unit": "%"},
      {"measurement": "earliest time of the inhibitory effect on MAPKAP-K2 phosphorylation", "setting": "[4]", "result": 3, "unit": "h"},
      {"measurement": "time to which the inhibitory effect on MAPKAP-K2 phosphorylation extended", "setting": "[4]", "result": 12, "unit": "h"},
      {"measurement": "inhibition of tumor volume", "setting": "P815 tumors; 3 mg/kg oral tid", "result": 55, "unit": "%"},
      {"measurement": "inhibition of tumor volume", "setting": "P815 tumors; 30 mg/kg oral tid", "result": 67, "unit": "%"},
      {"measurement": "inhibition of lung metastasis formation", "setting": "[5]; 3 mg/kg orally tid", "result": 54, "unit": "%"},
      {"measurement": "inhibition of lung metastasis formation", "setting": "[5]; 10 mg/kg orally tid", "result": 73, "unit": "%"},
      {"measurement": "inhibition of lung metastasis formation", "setting": "[5]; 30 mg/kg orally tid", "result": 95, "unit": "%"}
    ]},
    {"compound": "C[C@]12C=CC(=O)C=C1CC[C@@H]1[C@@H]2[C@@H](O)C[C@@]2(C)[C@H]1CC[C@]2(O)C(=O)CO", "note": "[Prednisolone, reference compound]", "values": [
      {"measurement": "inflammation (ankle diameter)", "setting": "[3]; 10 mg/kg PO qd x 14", "result": "reduced the inflammation to pre-arthritic levels"}
    ]},
    {"compound": "Nc1nccc(-c2c(-c3ccc(F)cc3)ncn2C2CCNCC2)n1", "note": "[SB22025]", "values": [
      {"measurement": "inhibition of angiogenesis", "setting": "angiogenesis", "result": "has been shown to inhibit angiogenesis"}
    ]}
  ]
}
